Measurements reported in the supplement of paper PMC10627819.

Tests used:
[1] = tested on: S. aureus DSM 20231; test: fitness (endpoint OD595 vs no drug) (fraction); higher = more growth
Summary of the method: (§1)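 Volumes were 30 µl per well, or 55 µl for S. pneumoniae, in 384-well plates inoculated at OD595 0.01. Media were TSB, LB Lennox or CY at 37 °C, and OD595 was read every 30 min for 14 h with first-reading background subtraction. Fitness is the ratio of optical density at stationary-phase entry to the robust mean of no-drug controls. That ratio is capped at 1.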

[2] = tested on: S. aureus Newman; test: as above
Summary of the method: as §1

[3] = tested on: S. pneumoniae D39V; test: as above
Summary of the method: as §1

[4] = tested on: S. aureus DSM 20231; test: Bliss interaction score (quartile over a dose matrix) (fitness difference); higher = more antagonism (negative = synergy)
Summary of the method: (§2)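 Each OD595 reading at entry into stationary phase was scaled to the robust mean of the untreated wells on its plate, with a ceiling of 1. These ratios define fitness, and single-drug fitness was inferred from combinations. The Bliss score compares observed fitness with the product-based expectation and is reported as quartiles across all replicate types, technical, biological and donor/recipient.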

[5] = tested on: B. subtilis 168; test: as above
Summary of the method: as §2

[6] = tested on: S. aureus Newman; test: as above
Summary of the method: as §2

[7] = tested on: S. pneumoniae D39V; test: as above
Summary of the method: as §2

[8] = first compound 342 µg/mL, partner 0.1875 µg/mL
[9] = first compound 342 µg/mL, partner 0.375 µg/mL
[10] = first compound 342 µg/mL, partner 0.75 µg/mL
[11] = first compound 85.5 µg/mL, partner 0.03125 µg/mL
[12] = first compound 85.5 µg/mL, partner 0.0625 µg/mL
[13] = first compound 85.5 µg/mL, partner 0.125 µg/mL
[14] = first compound 85.5 µg/mL, partner 0.25 µg/mL, one replicate
[15] = first compound 85.5 µg/mL, partner 0.5 µg/mL, one replicate
[16] = first compound 171 µg/mL, partner 0.03125 µg/mL
[17] = first compound 171 µg/mL, partner 0.0625 µg/mL
[18] = first compound 171 µg/mL, partner 0.125 µg/mL
[19] = first compound 171 µg/mL, partner 0.25 µg/mL, one replicate
[20] = first compound 171 µg/mL, partner 0.5 µg/mL, one replicate
[21] = first compound 342 µg/mL, partner 0.03125 µg/mL
[22] = first compound 342 µg/mL, partner 0.0625 µg/mL
[23] = first compound 342 µg/mL, partner 0.125 µg/mL
[24] = first compound 342 µg/mL, partner 0.25 µg/mL, one replicate
[25] = first compound 342 µg/mL, partner 0.5 µg/mL, one replicate
[26] = first compound 0.0625 µg/mL, partner 0.0625 µg/mL
[27] = first compound 0.0625 µg/mL, partner 0.125 µg/mL
[28] = first compound 0.0625 µg/mL, partner 0.25 µg/mL
[29] = first compound 0.0625 µg/mL, partner 0.5 µg/mL, one replicate
[30] = first compound 0.0625 µg/mL, partner 1 µg/mL, one replicate
[31] = first compound 0.125 µg/mL, partner 0.0625 µg/mL
[32] = first compound 0.125 µg/mL, partner 0.125 µg/mL
[33] = first compound 0.125 µg/mL, partner 0.5 µg/mL, one replicate
[34] = first compound 0.125 µg/mL, partner 1 µg/mL, one replicate
[35] = first compound 0.25 µg/mL, partner 0.0625 µg/mL
[36] = first compound 0.25 µg/mL, partner 0.5 µg/mL, one replicate
[37] = first compound 0.25 µg/mL, partner 1 µg/mL, one replicate
[38] = first compound 0.0625 µg/mL, partner 0.1875 µg/mL
[39] = first compound 0.0625 µg/mL, partner 0.375 µg/mL
[40] = first compound 0.0625 µg/mL, partner 0.75 µg/mL
[41] = first compound 0.125 µg/mL, partner 0.1875 µg/mL
[42] = first compound 0.125 µg/mL, partner 0.375 µg/mL
[43] = first compound 0.125 µg/mL, partner 0.75 µg/mL
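Throughout, for Bliss interaction score (quartile over a dose matrix): first quartile when negative (synergy) and third quartile when positive (antagonism).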

CCN(CC)CCOC(=O)c1ccc(N)cc1 [Procaine] + CN[C@H](CC(C)C)C(=O)N[C@H]1C(=O)N[C@@H](CC(N)=O)C(=O)N[C@H]2C(=O)N[C@H]3C(=O)N[C@H](C(=O)N[C@H](C(=O)O)c4cc(O)cc(O)c4-c4cc3ccc4O)[C@H](O)c3ccc(c(Cl)c3)Oc3cc2cc(c3O[C@@H]2O[C@H](CO)[C@@H](O)[C@H](O)[C@H]2O[C@H]2C[C@](C)(N)[C@H](O)[C@H](C)O2)Oc2ccc(cc2Cl)[C@H]1O [Vancomycin]
fitness ([1]; first compound 85.5 µg/mL, partner 0.1875 µg/mL): 0.969 | fitness ([1]; first compound 85.5 µg/mL, partner 0.375 µg/mL): 0.999 | fitness ([1]; first compound 85.5 µg/mL, partner 0.75 µg/mL): 0.953 | fitness ([1]; first compound 171 µg/mL, partner 0.1875 µg/mL): 0.953 | fitness ([1]; first compound 171 µg/mL, partner 0.375 µg/mL): ≥ 1 | fitness ([1]; first compound 171 µg/mL, partner 0.75 µg/mL): 0.982 | fitness [1, 8]: 0.883 | fitness [1, 9]: 0.983 | fitness [1, 10]: ≥ 1 | fitness [2, 8]: 0.962 | fitness [2, 9]: 0.999 | fitness [2, 10]: 0.98 | fitness [3, 11]: ≥ 1 | fitness [3, 12]: 0.963 | fitness [3, 13]: 0.742 | fitness [3, 14]: 0.0963 | fitness [3, 15]: 0.0592 | fitness [3, 16]: 0.978 | fitness [3, 17]: 0.955 | fitness [3, 18]: 0.903 | fitness [3, 19]: 0.383 | fitness [3, 20]: 0.0925 | fitness [3, 21]: 0.952 | fitness [3, 22]: 0.921 | fitness [3, 23]: 0.907 | fitness [3, 24]: 0.674 | fitness [3, 25]: 0.148 | Bliss interaction score [4]: 0.0492 | Bliss interaction score [5]: 0.0237 | Bliss interaction score [6]: 0.0558 | Bliss interaction score [7]: -0.0761

CCN(CC)CCOC(=O)c1ccc(N)cc1 [Procaine] + Cn1nnc(-c2ccc(-c3ccc(N4C[C@H](CO)OC4=O)cc3F)cn2)n1 [Tedizolid]
fitness [1, 12]: 0.789 | fitness ([1]; first compound 85.5 µg/mL, partner 0.25 µg/mL): 0.067 | fitness [1, 17]: 0.887 | fitness ([1]; first compound 171 µg/mL, partner 0.25 µg/mL): 0.0661 | fitness [1, 22]: 0.81 | fitness ([1]; first compound 342 µg/mL, partner 0.25 µg/mL): 0.0739 | fitness [2, 12]: ≥ 1 | fitness [2, 13]: 0.969 | fitness [2, 17]: 0.972 | fitness [2, 18]: 0.939 | fitness [2, 22]: 0.972 | fitness [2, 23]: 0.951 | fitness [3, 11]: 0.989 | fitness [3, 12]: 0.954 | fitness [3, 13]: 0.803 | fitness [3, 14]: 0.67 | fitness [3, 15]: 0.282 | fitness [3, 16]: 0.975 | fitness [3, 17]: 0.943 | fitness [3, 18]: 0.862 | fitness [3, 19]: 0.744 | fitness [3, 20]: 0.311 | fitness [3, 21]: 0.97 | fitness [3, 22]: 0.973 | fitness [3, 23]: 0.796 | fitness [3, 24]: 0.695 | fitness [3, 25]: 0.353 | Bliss interaction score [4]: -0.0772 | Bliss interaction score [5]: -0.0545 | Bliss interaction score [6]: 0.0692 | Bliss interaction score [7]: -0.0797

Cn1nnc(-c2ccc(-c3ccc(N4C[C@H](CO)OC4=O)cc3F)cn2)n1 [Tedizolid] + CC1=C\[C@@H](O)CC(=O)Cc2nc(co2)C(=O)N2CCC=C2C(=O)O[C@H](C(C)C)[C@H](C)/C=C/C(=O)NC\C=C\1 [Virginiamycin M1]
fitness [1, 26]: 0.839 | fitness [1, 27]: 0.889 | fitness [1, 28]: 0.888 | fitness [1, 29]: 0.676 | fitness [1, 30]: 0.681 | fitness [1, 31]: 0.579 | fitness [1, 32]: 0.542 | fitness [1, 33]: 0.31 | fitness [1, 34]: 0.327 | fitness [1, 35]: 0.194 | fitness ([1]; first compound 0.25 µg/mL, partner 0.125 µg/mL): 0.212 | fitness ([1]; first compound 0.25 µg/mL, partner 0.25 µg/mL): 0.102 | fitness [1, 36]: 0.0481 | fitness [1, 37]: 0.0496 | fitness [2, 26]: 0.965 | fitness [2, 27]: 0.97 | fitness [2, 28]: 0.997 | fitness [2, 29]: 0.885 | fitness [2, 30]: 0.956 | fitness ([2]; first compound 0.0625 µg/mL, partner 2 µg/mL, one replicate): 0.851 | fitness [2, 31]: 0.814 | fitness [2, 32]: 0.823 | fitness ([2]; first compound 0.125 µg/mL, partner 0.25 µg/mL): 0.843 | fitness [2, 33]: 0.91 | fitness [2, 34]: 0.956 | fitness ([2]; first compound 0.125 µg/mL, partner 2 µg/mL, one replicate): 0.785 | fitness [2, 36]: 0.57 | fitness [2, 37]: 0.565 | fitness ([2]; first compound 0.25 µg/mL, partner 2 µg/mL, one replicate): 0.456 | fitness ([3]; first compound 0.03125 µg/mL, partner 0.5 µg/mL): 0.972 | fitness ([3]; first compound 0.03125 µg/mL, partner 1 µg/mL): 0.978 | fitness ([3]; first compound 0.03125 µg/mL, partner 2 µg/mL): 0.955 | fitness ([3]; first compound 0.0625 µg/mL, partner 0.5 µg/mL): 0.962 | fitness ([3]; first compound 0.0625 µg/mL, partner 1 µg/mL): 0.973 | fitness ([3]; first compound 0.0625 µg/mL, partner 2 µg/mL): 0.948 | fitness ([3]; first compound 0.125 µg/mL, partner 0.15 µg/mL, one replicate): 0.905 | fitness ([3]; first compound 0.125 µg/mL, partner 0.3 µg/mL, one replicate): 0.892 | fitness ([3]; first compound 0.125 µg/mL, partner 0.5 µg/mL): 0.807 | fitness ([3]; first compound 0.125 µg/mL, partner 1 µg/mL): 0.807 | fitness ([3]; first compound 0.125 µg/mL, partner 2 µg/mL): 0.824 | fitness ([3]; first compound 0.25 µg/mL, partner 0.15 µg/mL, one replicate): 0.835 | fitness ([3]; first compound 0.25 µg/mL, partner 0.3 µg/mL, one replicate): 0.818 | fitness [3, 36]: 0.838 | fitness [3, 37]: 0.771 | fitness ([3]; first compound 0.25 µg/mL, partner 2 µg/mL): 0.785 | fitness ([3]; first compound 0.5 µg/mL, partner 0.15 µg/mL, one replicate): 0.534 | fitness ([3]; first compound 0.5 µg/mL, partner 0.3 µg/mL, one replicate): 0.505 | fitness ([3]; first compound 0.5 µg/mL, partner 0.5 µg/mL, one replicate): 0.659 | fitness ([3]; first compound 0.5 µg/mL, partner 1 µg/mL, one replicate): 0.523 | fitness ([3]; first compound 0.5 µg/mL, partner 2 µg/mL): 0.607 | Bliss interaction score [4]: -0.078 | Bliss interaction score [5]: -0.0674 | Bliss interaction score [6]: 0.0611 | Bliss interaction score [7]: 0.103

Cn1nnc(-c2ccc(-c3ccc(N4C[C@H](CO)OC4=O)cc3F)cn2)n1 [Tedizolid] + CN[C@H](CC(C)C)C(=O)N[C@H]1C(=O)N[C@@H](CC(N)=O)C(=O)N[C@H]2C(=O)N[C@H]3C(=O)N[C@H](C(=O)N[C@H](C(=O)O)c4cc(O)cc(O)c4-c4cc3ccc4O)[C@H](O)c3ccc(c(Cl)c3)Oc3cc2cc(c3O[C@@H]2O[C@H](CO)[C@@H](O)[C@H](O)[C@H]2O[C@H]2C[C@](C)(N)[C@H](O)[C@H](C)O2)Oc2ccc(cc2Cl)[C@H]1O [Vancomycin]
fitness [1, 38]: 0.89 | fitness [1, 39]: 0.891 | fitness [1, 40]: 0.924 | fitness [1, 41]: 0.754 | fitness [1, 42]: 0.723 | fitness [1, 43]: 0.867 | fitness ([1]; first compound 0.25 µg/mL, partner 0.1875 µg/mL): 0.348 | fitness ([1]; first compound 0.25 µg/mL, partner 0.375 µg/mL): 0.377 | fitness ([1]; first compound 0.25 µg/mL, partner 0.75 µg/mL): 0.397 | fitness [2, 38]: 0.977 | fitness [2, 39]: 0.966 | fitness [2, 40]: 0.939 | fitness [2, 41]: 0.87 | fitness [2, 42]: 0.845 | fitness [2, 43]: 0.824 | fitness ([3]; first compound 0.03125 µg/mL, partner 0.125 µg/mL): 0.976 | fitness [3, 27]: 0.968 | fitness ([3]; first compound 0.125 µg/mL, partner 0.03125 µg/mL): 0.809 | fitness [3, 31]: 0.819 | fitness [3, 32]: 0.833 | fitness ([3]; first compound 0.25 µg/mL, partner 0.03125 µg/mL): 0.73 | fitness [3, 35]: 0.718 | fitness ([3]; first compound 0.5 µg/mL, partner 0.03125 µg/mL): 0.482 | fitness ([3]; first compound 0.5 µg/mL, partner 0.0625 µg/mL): 0.473 | Bliss interaction score [4]: -0.0656 | Bliss interaction score [5]: 0.0605 | Bliss interaction score [6]: 0.046 | Bliss interaction score [7]: 0.107
